Measured values: US9511134B2, “Inducing immune responses to influenza virus using polypeptide and nucleic acid compositions” (priority 2006, dated 2016)
Like-named read-outs stand apart in the source and are kept apart here. Where no end group is shown, it is not given here.

Tests used:
Experiment in all cases: biochemical
Type in all cases: binding
DRB1*0404 = DRB1*0404 (Homo sapiens, UniProt P01903+P01911, A100R/A169T/F76Y/I96L/K127E/L162R/M171V/N62H/P40V/Q125Y/R42H/S133A/S149N/S66Y/V209L/W38E); conditions: IC50 nM to purified HLA DRB1*0404
DRB1*0101 = target: T1, DRB1*0101 (Homo sapiens, UniProt P01903+P01911, A100R/D57E/F55L/F60I/F76Y/I96L/L162R/M171V/P40L/Q125E/R42F/V115G/Y59C); conditions: IC50 nM to purified HLA DRB1*0101
T1 construct: made in house; host or cells: EBV-transformed homozygous human B cell lines, transfected fibroblasts or single-allele 721.221 transfectants

DRB1*0401 = target: T2, DRB1*0401 (Homo sapiens, UniProt P01903+P01911, A100K/A169T/F76Y/I96L/K127E/L162R/M171V/N62H/P40V/Q125Y/R42H/S133A/S149N/S66Y/V115G/V209L/W38E); conditions: read-out: IC50 nM to purified HLA DRB1*0401
T2 construct: made in house; host or cells: EBV-transformed homozygous human B cell lines, transfected fibroblasts or single-allele 721.221 transfectants

DRB1*0301 = target: T3, DRB1*0301 (Homo sapiens, UniProt P01903+P01911, A100K/A102G/A103R/A169T/F55Y/I96L/K41T/L162R/M171V/P40S/Q125H/Q178H/Q39Y/R42S/S66N/T106N/T262R/W38E/Y61H)
T3 construct: made in house; host or cells: EBV-transformed homozygous human B cell lines, transfected fibroblasts or single-allele 721.221 transfectants
T3 sequence (P01903 26-254, other chains not shown): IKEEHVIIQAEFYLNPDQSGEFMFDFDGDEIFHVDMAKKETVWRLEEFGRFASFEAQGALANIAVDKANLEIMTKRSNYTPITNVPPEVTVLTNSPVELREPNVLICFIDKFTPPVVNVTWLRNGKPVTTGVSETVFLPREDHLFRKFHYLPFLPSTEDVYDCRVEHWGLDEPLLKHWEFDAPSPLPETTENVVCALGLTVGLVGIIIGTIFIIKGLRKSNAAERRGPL

DRB1*0405 = DRB1*0405 (Homo sapiens, UniProt P01903+P01911, A100R/A169T/D86S/F76Y/I96L/K127E/L162R/M171V/N62H/P40V/Q125Y/R42H/S133A/S149N/S66Y/V115G/V209L/W38E); conditions: read-out: IC50 nM to purified HLA DRB1*0405
DRB1*1302 = DRB1*1302 (Homo sapiens, UniProt P01903+P01911, A100E/A169T/K41T/L162R/M171V/P40S/Q125H/Q178H/Q39Y/Q99D/R42S/S66N/T262R/V115G/W38E/Y61H); conditions: read-out: IC50 nM to purified HLA DRB1*1302
Sequence of DRB1*1302 (P01903 26-254 limits assumed, other chains not shown): as the sequence (P01903 26-254, other chains not shown) above

DRB1*1101 = DRB1*1101 (Homo sapiens, UniProt P01903+P01911, A100R/A169T/A87E/I96F/K41T/L162R/M171V/P40S/Q125H/Q178H/Q39Y/Q99D/R42S/S66Y/T262R/V115G/W38E); conditions: read-out: IC50 nM to purified HLA DRB1*1101
Sequence of DRB1*1101 (P01903 26-254 limits assumed, other chains not shown): as the sequence (P01903 26-254, other chains not shown) above

DRB5*0101 = target: T4, DRB5*0101 (Homo sapiens, UniProt P01903+Q30154)
T4 construct: made in house; host or cells: EBV-transformed homozygous human B cell lines, transfected fibroblasts or single-allele 721.221 transfectants

DRB4*0101 = target: T5, DRB4*0101 (Homo sapiens, UniProt P01903+P13762, G164S); conditions: IC50 nM to purified HLA DRB4*0101
T5 construct: made in house; host or cells: EBV-transformed homozygous human B cell lines, transfected fibroblasts or single-allele 721.221 transfectants

DRB1*1501 = target: T6, DRB1*1501 (Homo sapiens, UniProt P01903+P01911); conditions: read-out: IC50 nM to purified HLA DRB1*1501
T6 construct: made in house; host or cells: EBV-transformed homozygous human B cell lines, transfected fibroblasts or single-allele 721.221 transfectants

Compound	IC50 (DRB1*0404) [nM]	IC50 (DRB1*0101) [nM]	IC50 (DRB1*0401) [nM]	IC50 (DRB1*0301) [nM]	IC50 (DRB1*0405) [nM]	IC50 (DRB1*1302) [nM]	IC50 (DRB1*1101) [nM]	IC50 (DRB5*0101) [nM]	IC50 (DRB5*0101; read-out: IC50 nM to purified HLA DRB5*0101) [nM]	IC50 (DRB4*0101) [nM]	IC50 (DRB1*1501) [nM]
CC[C@H](C)[C@H](NC(=O)[C@H](CCC(=O)O)NC(=O)[C@H](CCC(N)=O)NC(=O)[C@H](CCC(=O)O)NC(=O)[C@@H](NC(=O)[C@H](CCC(=O)O)NC(=O)[C@H](CC(C)C)NC(=O)[C@H](CC(C)C)NC(=O)[C@H](CC(C)C)NC(=O)[C@@H](N)CCC(N)=O)C(C)C)C(=O)N[C@@H](CCCNC(=N)N)C(=O)N[C@H](C(=O)N[C@@H](Cc1ccccc1)C(=O)N[C@@H](CO)C(=O)N[C@@H](Cc1ccccc1)C(=O)O)[C@@H](C)O [Flu.NS2.180]	1600	11900	13900	792	5140						
CC[C@H](C)[C@H](NC(=O)[C@H](CCSC)NC(=O)[C@@H]1CCCN1C(=O)[C@H](CC(N)=O)NC(=O)[C@@H](N)Cc1ccccc1)C(=O)N[C@H](C(=O)N[C@@H](CCC(=O)O)C(=O)N[C@@H](CC(C)C)C(=O)N[C@@H](C)C(=O)N[C@@H](CCC(=O)O)C(=O)N[C@@H](CCCCN)C(=O)N[C@H](C(=O)N[C@@H](CCSC)C(=O)N[C@@H](CCCCN)C(=O)N[C@@H](CCC(=O)O)C(=O)O)[C@@H](C)O)C(C)C [Flu.PA.12]	610	48	29	744	1240	1250					
CC[C@H](C)[C@H](NC(=O)[C@H](CCC(=O)O)NC(=O)[C@H](Cc1ccccc1)NC(=O)[C@@H](N)CCCNC(=N)N)C(=O)N[C@H](C(=O)NCC(=O)N[C@H](C(=O)N[C@@H](CCSC)C(=O)N[C@@H](CCCNC(=N)N)C(=O)N[C@@H](CCCNC(=N)N)C(=O)N[C@@H](CC(C)C)C(=O)N[C@@H](C)C(=O)N[C@@H](CC(=O)O)C(=O)N[C@@H](CCC(N)=O)C(=O)N[C@@H](CO)C(=O)O)[C@@H](C)O)[C@@H](C)O [Flu.PA.207]							19	9.2			
CC(C)[C@H](NC(=O)[C@H](CCC(=O)O)NC(=O)[C@H](C)NC(=O)[C@@H](NC(=O)[C@H](Cc1ccccc1)NC(=O)[C@H](Cc1ccc(O)cc1)NC(=O)[C@H](CC(N)=O)NC(=O)[C@@H](N)CCCNC(=N)N)[C@@H](C)O)C(=O)N[C@@H](CO)C(=O)N[C@@H](Cc1c[nH]cn1)C(=O)N[C@@H](CS)C(=O)N[C@@H](CCCNC(=N)N)C(=O)N[C@@H](C)C(=O)N[C@H](C(=O)N[C@@H](CCC(=O)O)C(=O)O)[C@@H](C)O [Flu.PA.446]	7600	627	45	883	5720						
CC[C@H](C)[C@H](NC(=O)[C@H](CCSC)NC(=O)[C@H](CO)NC(=O)[C@@H](N)CCC(=O)O)C(=O)N[C@@H](CCC(=O)O)C(=O)N[C@@H](C)C(=O)N[C@@H](CCC(=O)O)C(=O)N[C@@H](CO)C(=O)N[C@@H](CO)C(=O)N[C@H](C(=O)N[C@@H](CCCCN)C(=O)N[C@@H](CCC(=O)O)C(=O)N[C@@H](CCCCN)C(=O)N[C@@H](CC(=O)O)C(=O)N[C@@H](CCSC)C(=O)O)C(C)C [Flu.PA.596]	121				72		12000	600			
CC[C@H](C)[C@H](NC(=O)[C@H](CC(C)C)NC(=O)[C@H](CS)NC(=O)[C@H](CCC(=O)O)NC(=O)[C@@H](N)CCC(=O)O)C(=O)N[C@@H](CC(N)=O)C(=O)N[C@@H](CC(=O)O)C(=O)N1CCC[C@H]1C(=O)N[C@@H](Cc1c[nH]c2ccccc12)C(=O)N[C@H](C(=O)N[C@@H](CC(C)C)C(=O)N[C@@H](CC(C)C)C(=O)N[C@@H](CC(N)=O)C(=O)N[C@@H](C)C(=O)N[C@@H](CO)C(=O)O)C(C)C [Flu.PA.694]	183	34		618	15000						
CC[C@H](C)[C@H](NC(=O)[C@H](CC(N)=O)NC(=O)[C@H](Cc1ccc(O)cc1)NC(=O)[C@H](CC(C)C)NC(=O)[C@H](CC(N)=O)NC(=O)[C@@H]1CCCN1)C(=O)N[C@@H](CCCNC(=N)N)C(=O)N[C@@H](CC(N)=O)C(=O)N[C@@H](CC(C)C)C(=O)N[C@@H](Cc1c[nH]cn1)C(=O)N[C@H](C(=O)N1CCC[C@H]1C(=O)N[C@@H](CCC(=O)O)C(=O)N[C@H](C(=O)N[C@@H](CS)C(=O)O)C(C)C)[C@@H](C)CC [Flu.PB1.599]									2310		
CC[C@H](C)[C@H](NC(=O)CNC(=O)[C@H](CCCNC(=N)N)NC(=O)[C@@H](N)CCC(N)=O)C(=O)N[C@@H](CC(C)C)C(=O)N[C@@H](CCC(=O)O)C(=O)N[C@@H](CC(=O)O)C(=O)N[C@@H](CCC(=O)O)C(=O)N[C@@H](CCC(N)=O)C(=O)N[C@@H](CCSC)C(=O)N[C@@H](Cc1ccc(O)cc1)C(=O)N[C@@H](CCC(N)=O)C(=O)N[C@@H](CCCCN)C(=O)N[C@@H](CS)C(=O)N[C@@H](CS)C(=O)O [Flu.PB1.682]	3270	433	2560	34	700						
CC[C@H](C)[C@H](NC(=O)CNC(=O)[C@@H](N)CCCNC(=N)N)C(=O)N[C@@H](CC(C)C)C(=O)N[C@@H](CCC(=O)O)C(=O)N[C@@H](CC(=O)O)C(=O)N[C@@H](CCC(=O)O)C(=O)N[C@@H](CCC(N)=O)C(=O)N[C@@H](CCSC)C(=O)N[C@@H](Cc1ccc(O)cc1)C(=O)N[C@@H](CCC(N)=O)C(=O)N[C@@H](CCCCN)C(=O)N[C@@H](CS)C(=O)N[C@@H](CS)C(=O)N[C@@H](CC(N)=O)C(=O)O [Flu.PB1.683]			5740	43	3280	18000					
CC[C@H](C)[C@H](NC(=O)[C@H](CO)NC(=O)[C@H](CCC(N)=O)NC(=O)[C@H](CCC(=O)O)NC(=O)[C@H](CC(=O)O)NC(=O)[C@H](CCCNC(=N)N)NC(=O)CNC(=O)[C@H](CO)NC(=O)[C@@H](NC(=O)[C@@H](NC(=O)[C@H](CC(C)C)NC(=O)[C@H](CCC(N)=O)NC(=O)[C@@H](NC(=O)[C@@H](N)CC(C)C)[C@@H](C)CC)[C@@H](C)CC)C(C)C)C(=O)N[C@@H](C)C(=O)O [Flu.PB2.384]	90	3230	83	53	460	4680	2010			9.9	420
CC[C@H](C)[C@H](NC(=O)[C@H](CCSC)NC(=O)[C@H](CS)NC(=O)[C@H](CC(=O)O)NC(=O)[C@H](CCC(=O)O)NC(=O)[C@H](CCC(N)=O)NC(=O)[C@H](CO)NC(=O)[C@H](Cc1ccccc1)NC(=O)[C@@H](NC(=O)[C@H](CCSC)NC(=O)[C@H](C)N)C(C)C)C(=O)N[C@@H](CCCCN)C(=O)N[C@@H](C)C(=O)N[C@H](C(=O)N[C@@H](CCCNC(=N)N)C(=O)O)C(C)C [Flu.PB2.404]	336	11000	3280	718	6780	9200					
CC[C@H](C)[C@H](NC(=O)[C@H](CO)NC(=O)[C@@H](NC(=O)[C@@H](NC(=O)[C@@H](NC(=O)[C@@H](N)CCCNC(=N)N)C(C)C)C(C)C)C(C)C)C(=O)N[C@@H](CC(=O)O)C(=O)N[C@@H](CCCNC(=N)N)C(=O)N[C@@H](Cc1ccccc1)C(=O)N[C@@H](CC(C)C)C(=O)N[C@@H](CCCNC(=N)N)C(=O)N[C@H](C(=O)N[C@@H](CCCNC(=N)N)C(=O)N[C@@H](CC(=O)O)C(=O)N[C@@H](CCC(N)=O)C(=O)O)C(C)C [Flu.PB2.496]	400		111	67	2050	8.1					
ALQLLFEVEQEIRTF [Flu.NS2.178]	2150	3490			8870						
LILYDKEEIRRIWRQ [Flu.NP.111]	262	7180		22	7500	3100					
MVAYMLERELVRKTR [Flu.PB2.205]		97	166		5540	2080					
